From paper PMC5537602, “TRPA1 channel mediates organophosphate-induced delayed neuropathy” (Cell Discovery, 2017)
“Also recorded” adds a separate entry of the source.

How the values were obtained:
cTRPA1 = target: T1, cTRPA1 (Gallus gallus, UniProt W8VTH6); experiment: Whole-cell patch-clamp, HEK293 cells expressing cTRPA1; assay type: cell-based, chicken
T1 sequence (W8VTH6 1-1126): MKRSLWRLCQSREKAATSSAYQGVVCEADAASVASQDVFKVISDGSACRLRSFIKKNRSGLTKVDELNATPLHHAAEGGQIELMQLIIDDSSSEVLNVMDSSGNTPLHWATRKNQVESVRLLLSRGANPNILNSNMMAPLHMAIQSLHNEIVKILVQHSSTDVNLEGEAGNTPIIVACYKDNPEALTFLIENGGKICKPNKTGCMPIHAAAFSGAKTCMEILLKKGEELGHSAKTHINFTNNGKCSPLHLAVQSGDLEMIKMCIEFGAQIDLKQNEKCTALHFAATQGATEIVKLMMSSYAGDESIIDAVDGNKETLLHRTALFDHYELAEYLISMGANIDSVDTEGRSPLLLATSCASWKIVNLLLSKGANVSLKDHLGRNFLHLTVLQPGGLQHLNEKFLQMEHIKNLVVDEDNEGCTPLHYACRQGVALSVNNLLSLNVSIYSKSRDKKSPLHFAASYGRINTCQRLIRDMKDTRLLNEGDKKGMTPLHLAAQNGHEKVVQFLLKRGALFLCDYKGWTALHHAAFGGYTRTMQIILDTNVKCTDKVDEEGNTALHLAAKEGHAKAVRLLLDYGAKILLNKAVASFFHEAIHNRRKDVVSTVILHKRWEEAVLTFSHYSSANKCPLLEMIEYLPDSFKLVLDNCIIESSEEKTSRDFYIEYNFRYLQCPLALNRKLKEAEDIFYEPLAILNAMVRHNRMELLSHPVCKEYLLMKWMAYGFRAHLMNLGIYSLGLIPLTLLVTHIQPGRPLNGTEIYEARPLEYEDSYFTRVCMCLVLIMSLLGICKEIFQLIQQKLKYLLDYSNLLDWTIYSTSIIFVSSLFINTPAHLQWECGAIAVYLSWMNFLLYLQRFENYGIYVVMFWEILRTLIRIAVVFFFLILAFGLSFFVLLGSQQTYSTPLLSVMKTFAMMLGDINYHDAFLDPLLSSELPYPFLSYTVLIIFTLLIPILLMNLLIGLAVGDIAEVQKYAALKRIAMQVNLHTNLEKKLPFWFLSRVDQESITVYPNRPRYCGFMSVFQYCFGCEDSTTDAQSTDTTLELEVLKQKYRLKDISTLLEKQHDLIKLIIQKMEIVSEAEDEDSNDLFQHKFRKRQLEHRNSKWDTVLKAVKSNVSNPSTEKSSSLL
Protocol: (§1) All cell culture reagents were purchased from Life Technologies. HEK293 cells were transfected transiently with the corresponding plasmids using lipofectamine 2000 (Life Technologies). Transfection efficiency was monitored by co-transfecting EGFP plasmid which codes for the enhanced green fluorescent protein. Electrophysiological recordings were performed between 24 and 36 h after transfection.
Whole-cell patch-clamp recordings in DRG neurons (small diameter, […]) and HEK293 cells were operated at room temperature (23–25 °C) using EPC-10 amplifier and Patch Master Software (HEKA). […] Currents were sampled at 10 kHz and low-pass filtered at 2.9 kHz. […] The calcium-free external solution contained (in mM) 140 NaCl, 5 KCl, 0.5 EGTA, 1 MgCl2, 10 Glucose and 10 HEPES, with pH adjusted to 7.4 by NaOH and osmolarity 300–310 mOsm. The 0.5 mM EGTA was replaced by 2 mM CaCl2 for the recordings in DRG neurons. TRPA1 currents development was monitored with repetitive injections of 300 ms duration voltage ramps from −100 to +100 mV every 2 s and the holding potential was set to 0 mV for 50 ms, existing in both sides of the voltage ramp. To record inward currents in DRG neurons, we conducted voltage clamp at holding membrane potential of −70 mV. Solutions were switched using a gravity-fed continuous focal perfusion system.

mTRPA1 = mTRPA1 (Mus musculus, UniProt Q8BLA8); experiment: Whole-cell patch-clamp, HEK293 cells expressing mTRPA1; assay type: cell-based; design: expressed in transfected cells; host or cells: HEK293
mTRPA1, sequence (Q8BLA8 whole entry): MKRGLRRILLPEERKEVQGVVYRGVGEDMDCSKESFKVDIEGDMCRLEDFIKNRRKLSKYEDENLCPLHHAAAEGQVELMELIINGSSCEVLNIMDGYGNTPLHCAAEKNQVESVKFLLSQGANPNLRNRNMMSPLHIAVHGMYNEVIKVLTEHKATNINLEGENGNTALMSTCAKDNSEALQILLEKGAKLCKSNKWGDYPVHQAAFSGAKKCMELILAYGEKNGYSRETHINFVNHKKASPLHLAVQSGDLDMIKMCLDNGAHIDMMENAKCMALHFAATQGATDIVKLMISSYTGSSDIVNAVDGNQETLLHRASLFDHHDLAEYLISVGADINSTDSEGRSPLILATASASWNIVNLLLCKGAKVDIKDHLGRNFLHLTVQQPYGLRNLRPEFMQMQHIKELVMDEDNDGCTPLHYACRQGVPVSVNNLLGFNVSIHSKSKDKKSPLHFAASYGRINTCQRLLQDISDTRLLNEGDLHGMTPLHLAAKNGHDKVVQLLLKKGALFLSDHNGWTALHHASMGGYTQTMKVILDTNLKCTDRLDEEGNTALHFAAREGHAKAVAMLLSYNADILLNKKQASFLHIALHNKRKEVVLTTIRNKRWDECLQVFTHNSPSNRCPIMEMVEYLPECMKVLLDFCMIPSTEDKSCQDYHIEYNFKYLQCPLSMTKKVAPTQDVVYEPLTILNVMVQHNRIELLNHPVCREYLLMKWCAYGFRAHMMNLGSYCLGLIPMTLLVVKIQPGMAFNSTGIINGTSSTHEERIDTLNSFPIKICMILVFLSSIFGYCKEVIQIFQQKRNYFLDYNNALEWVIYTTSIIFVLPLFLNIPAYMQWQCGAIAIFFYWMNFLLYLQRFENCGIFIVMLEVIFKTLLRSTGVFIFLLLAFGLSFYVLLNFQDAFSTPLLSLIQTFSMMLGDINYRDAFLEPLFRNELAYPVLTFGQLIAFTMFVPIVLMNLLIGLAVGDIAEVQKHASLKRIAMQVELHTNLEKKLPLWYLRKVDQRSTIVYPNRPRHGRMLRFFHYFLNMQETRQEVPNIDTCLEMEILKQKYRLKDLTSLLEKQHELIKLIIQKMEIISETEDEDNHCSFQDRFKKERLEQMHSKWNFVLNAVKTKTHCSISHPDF
Protocol: as §1, with “Human embryonic kidney 293 (HEK293) cells were cultured in DMEM containing 10% (vol/vol) heat-inactivated fetal bovine serum, 100 units ml^−1 penicillin–streptomycin and 2 mM L-glutamine at 37 °C in a humidity-controlled sterile incubator with 5% CO2. All” for “All”
(§2) Whole-cell patch-clamp recordings in DRG neurons (small diameter, […]) and HEK293 cells were operated at room temperature (23–25 °C) using EPC-10 amplifier and Patch Master Software (HEKA). […] Currents were sampled at 10 kHz and low-pass filtered at 2.9 kHz. The internal solution was as follows (in mM): 140 CsCl, 10 HEPES, 5 EGTA, 0.1 CaCl2 and 1 MgCl2, with pH adjusted to 7.2 by CsOH and osmolarity 295–300 mOsm. The calcium-free external solution contained (in mM) 140 NaCl, 5 KCl, 0.5 EGTA, 1 MgCl2, 10 Glucose and 10 HEPES, with pH adjusted to 7.4 by NaOH and osmolarity 300–310 mOsm. The 0.5 mM EGTA was replaced by 2 mM CaCl2 for the recordings in DRG neurons. TRPA1 currents development was monitored with repetitive injections of 300 ms duration voltage ramps from −100 to +100 mV every 2 s and the holding potential was set to 0 mV for 50 ms, existing in both sides of the voltage ramp. To record inward currents in DRG neurons, we conducted voltage clamp at holding membrane potential of −70 mV. Solutions were switched using a gravity-fed continuous focal perfusion system.

hTRPA1 = target: T2, hTRPA1 (Homo sapiens, UniProt O75762); experiment: cell-based; assay type: cell-based
T2 construct: expressed in transfected cells; host or cells: HEK293, transient, EGFP plasmid co-transfected
T2 sequence (O75762 whole entry): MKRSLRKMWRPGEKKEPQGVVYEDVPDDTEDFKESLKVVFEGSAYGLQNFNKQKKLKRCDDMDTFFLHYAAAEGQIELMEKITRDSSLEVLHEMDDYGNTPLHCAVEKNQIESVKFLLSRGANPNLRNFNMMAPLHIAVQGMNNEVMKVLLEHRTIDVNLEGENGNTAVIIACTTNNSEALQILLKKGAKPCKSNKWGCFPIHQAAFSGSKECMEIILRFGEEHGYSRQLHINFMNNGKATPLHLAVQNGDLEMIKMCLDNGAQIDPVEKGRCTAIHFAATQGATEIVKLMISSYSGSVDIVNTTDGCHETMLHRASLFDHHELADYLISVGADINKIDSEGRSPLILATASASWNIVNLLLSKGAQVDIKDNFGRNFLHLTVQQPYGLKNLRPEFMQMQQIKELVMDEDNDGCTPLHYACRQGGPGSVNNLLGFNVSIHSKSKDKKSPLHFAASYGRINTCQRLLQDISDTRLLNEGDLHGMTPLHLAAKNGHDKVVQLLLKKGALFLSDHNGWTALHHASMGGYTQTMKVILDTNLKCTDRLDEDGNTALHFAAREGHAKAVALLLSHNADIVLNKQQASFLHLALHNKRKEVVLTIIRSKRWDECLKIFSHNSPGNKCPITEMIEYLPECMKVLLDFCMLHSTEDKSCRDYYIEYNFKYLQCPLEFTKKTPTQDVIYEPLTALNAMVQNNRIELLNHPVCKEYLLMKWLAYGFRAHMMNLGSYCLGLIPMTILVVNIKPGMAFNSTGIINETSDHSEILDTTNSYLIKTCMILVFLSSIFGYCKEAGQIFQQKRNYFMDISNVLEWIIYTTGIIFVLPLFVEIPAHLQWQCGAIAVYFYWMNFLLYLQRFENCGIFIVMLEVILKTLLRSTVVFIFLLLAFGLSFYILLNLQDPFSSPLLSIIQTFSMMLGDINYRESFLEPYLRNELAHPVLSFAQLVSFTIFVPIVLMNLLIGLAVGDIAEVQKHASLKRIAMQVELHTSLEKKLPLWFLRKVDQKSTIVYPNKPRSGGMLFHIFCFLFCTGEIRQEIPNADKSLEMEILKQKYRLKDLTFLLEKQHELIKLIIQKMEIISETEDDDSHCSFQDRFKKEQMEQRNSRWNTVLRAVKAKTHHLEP
Protocol: as §1, with “Human embryonic kidney 293 (HEK293) cells were cultured in DMEM containing 10% (vol/vol) heat-inactivated fetal bovine serum, 100 units ml^−1 penicillin–streptomycin and 2 mM L-glutamine at 37 °C in a humidity-controlled sterile incubator with 5% CO2. All” for “All”
as §2

mouse DRG neurons = experiment: Whole-cell patch-clamp of small-diameter DRG neurons; assay type: cell-based
Protocol: DRG neurons were isolated from young C57 BL/6 mice (4–5 weeks). The sections of thoracic and lumbar DRG neurons were rapidly isolated in calcium and magnesium-free PBS with low temperature conditions (ice-bath environment). The isolated tissues were cut into pieces with scissor and incubated for 30 min with 0.1% collagenase and 0.025% trypsin which were diluted by DMEM-F12 at 37 °C. After digestion, neurons were gently dissociated using Pasteur pipettes and then plated onto poly-D-lysine pre-coated glass cover slips. DRG neurons were cultured for 24 h before use.
as §2

[1] = 30 μM, calcium-free external solution

| SMILES | block of malathion-elicited cTRPA1 currents (cTRPA1; 10 μM HC030031) | block of agonist-elicited mTRPA1 currents (mTRPA1; 10 μM HC030031, malathion or TOCP as agonist) | block of agonist-elicited hTRPA1 currents (hTRPA1) | effect on AITC- or malathion-elicited action potentials (mouse DRG neurons; 10 μM HC030031) | inhibition of malathion-induced inward currents in DRG neurons (mouse DRG neurons; 10 μM HC030031) | EC50 (cTRPA1) [µM] | activation of cTRPA1 whole-cell currents (cTRPA1; calcium-free external solution) | activation of mTRPA1 whole-cell currents (mTRPA1; [1]) | activation of hTRPA1 whole-cell currents (hTRPA1; [1]) | EC50 (hTRPA1; whole-cell patch-clamp) [µM] | action potential firing in WT small-diameter neurons (mouse DRG neurons; 100 μM) | currents in neurons from Trpa1−/− mice (mouse DRG neurons; Trpa1−/− neurons, 17/17) | neurons with robust inward currents (mouse DRG neurons; small-diameter neurons from WT mice, 7/18) |
| --- | --- | --- | --- | --- | --- | --- | --- | --- | --- | --- | --- | --- | --- |
| CC(C)c1ccc(NC(=O)Cn2cnc3c2c(=O)n(C)c(=O)n3C)cc1 [HC030031] | blocked | blocked | blocked; also recorded: inhibited | suppressed | inhibited |  |  |  |  |  |  |  |  |
| CCOC(=O)CC(SP(=S)(OC)OC)C(=O)OCC (stereo not drawn) [malathion, S-[1,2-bis (ethoxycarbonyl)ethyl] O, O-dimethyl phosphorodithioate] |  |  |  |  |  | 10.8 ± 1.68 | large activation current | large activation current | large activation current | 14.2 ± 1.84 | bursts of action potentials | failed to induce currents | ~ 39% |
